The results in this text go back to ChEMBL document CHEMBL5212743, “Selectivity Literature for EUbOPEN Chemogenomics Library wave 3” (2023).

The target in experiment [1] is T1, D(1B) dopamine receptor (Homo sapiens, UniProt P21918). The experiment is described as follows: Selectivity interaction (GPCR panel (PDSP screen)) EUB0000730a DRD5.
The target in experiment [2] is Cyclin-dependent kinase 19 (Homo sapiens) (UniProt Q9BWU1). The note with it: at 100 nM.
The target in experiment [3] is Interstitial collagenase (Homo sapiens, UniProt P03956). The experiment is described as follows: Selectivity interaction (MMPs panel (FRET assay)) EUB0000730a MMP1.
Experiment [4] deals with cAMP-dependent protein kinase catalytic subunit alpha (Homo sapiens, UniProt P17612). Nature of the experiment: Selectivity interaction (Enzyme panel (Invitrogen)) EUB0000730a PRKACA.
The target of experiment [5] is Aurora kinase A (Homo sapiens, UniProt O14965). Nature of the experiment: Selectivity interaction (Enzyme panel (Invitrogen)) EUB0000730a STK6.
In experiment [6] the target is MAP kinase-activated protein kinase 2 (Homo sapiens, UniProt P49137). The experiment is described as follows: Selectivity interaction (Enzyme panel (Invitrogen)) EUB0000730a MAPKAPK2.
For experiment [7], the target named is T2, Matrilysin (Homo sapiens, UniProt P09237).
T2 sequence (P09237 whole entry): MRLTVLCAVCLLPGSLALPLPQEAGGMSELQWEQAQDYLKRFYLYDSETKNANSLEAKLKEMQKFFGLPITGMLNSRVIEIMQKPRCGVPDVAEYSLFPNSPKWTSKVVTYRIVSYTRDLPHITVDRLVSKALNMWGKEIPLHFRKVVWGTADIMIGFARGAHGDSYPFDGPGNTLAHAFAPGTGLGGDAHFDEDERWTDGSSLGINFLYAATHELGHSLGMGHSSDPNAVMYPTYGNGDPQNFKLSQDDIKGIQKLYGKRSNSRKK
Nature of the experiment: Selectivity interaction (MMPs panel (FRET assay)) EUB0000730a MMP7.

Experiment [8] has as its target Macrophage metalloelastase (Homo sapiens, UniProt P39900). The experiment is described as follows: Selectivity interaction (MMPs panel (FRET assay)) EUB0000730a MMP12.
The target in experiment [9] is Cyclin-dependent kinase 3 (Homo sapiens) (UniProt Q00526). The settings on record: at 100 nM.
Experiment [10] addresses 5'-AMP-activated protein kinase catalytic subunit alpha-1 (Homo sapiens, UniProt Q13131). Nature of the experiment: Selectivity interaction (Enzyme panel (Invitrogen)) EUB0000730a PRKAA1.
The target in experiment [11] is Neutrophil collagenase (Homo sapiens, UniProt P22894). Nature of the experiment: Selectivity interaction (MMPs panel (FRET assay)) EUB0000730a MMP8.
The target in experiment [12] is Cyclin-dependent kinase-like 3 (Homo sapiens) (UniProt Q8IVW4). The settings on record: at 100 nM.
Experiment [13] has as its target Stromelysin-1 (Homo sapiens, UniProt P08254). Nature of the experiment: Selectivity interaction (MMPs panel (FRET assay)) EUB0000730a MMP3.
In experiment [14] the target is T1, D(1B) dopamine receptor. The note with it: at 10 µM.
The target in experiment [15] is Serine/threonine-protein kinase mTOR (Homo sapiens) (UniProt P42345). Nature of the experiment: Selectivity interaction (KinomeScan (DiscoverX)) EUB0000727a MTOR. The note with it: at 100 nM.
Experiment [16] addresses Serine/threonine-protein kinase PAK 2 (Homo sapiens) (UniProt Q13177). Nature of the experiment: Selectivity interaction (KinomeScan (DiscoverX)) EUB0000727a PAK2.
Experiment [17] has as its target T1, D(1B) dopamine receptor. The experiment is described as follows: Selectivity interaction (GPCR panel (PDSP screen)) EUB0000727a DRD5.
The target of experiment [18] is SRSF protein kinase 1 (Homo sapiens) (UniProt Q96SB4). Nature of the experiment: Selectivity interaction (KinomeScan (DiscoverX)) EUB0000727a SRPK1. The settings on record: at 100 nM.
Experiment [19] has as its target Serine/threonine-protein kinase WNK4 (Homo sapiens) (UniProt Q96J92). Nature of the experiment: Selectivity interaction (KinomeScan (DiscoverX)) EUB0000307b WNK4. The settings on record: at 1 µM.
The target of experiment [20] is Prostaglandin E2 receptor EP4 subtype (Homo sapiens, UniProt P35408). Nature of the experiment: Selectivity interaction (Eurofins-Panlabs radioligand binding assay ) EUB0000307b PTGER4.
The target of experiment [21] is Epithelial discoidin domain-containing receptor 1 (Homo sapiens, UniProt Q08345). The experiment is described as follows: Selectivity interaction (KinomeScan (DiscoverX)) EUB0000307b DDR1. The note with it: at 1 µM.
Experiment [22] addresses T3, Adenosine receptor A3 (Homo sapiens, UniProt P0DMS8).
T3 sequence (P0DMS8 whole entry): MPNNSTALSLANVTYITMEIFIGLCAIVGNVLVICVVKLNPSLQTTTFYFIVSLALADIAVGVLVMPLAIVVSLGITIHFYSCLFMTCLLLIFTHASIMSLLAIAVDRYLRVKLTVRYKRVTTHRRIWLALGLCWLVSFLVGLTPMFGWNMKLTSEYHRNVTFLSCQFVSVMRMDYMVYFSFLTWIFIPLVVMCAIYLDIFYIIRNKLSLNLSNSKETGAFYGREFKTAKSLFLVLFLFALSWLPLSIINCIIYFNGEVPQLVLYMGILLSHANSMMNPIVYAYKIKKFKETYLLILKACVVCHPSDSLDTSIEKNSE
The experiment is described as follows: Selectivity interaction (Eurofins-Panlabs radioligand binding assay ) EUB0000307b ADORA3.

Experiment [23] has as its target Dual specificity tyrosine-phosphorylation-regulated kinase 1B (Homo sapiens, UniProt Q9Y463). The experiment is described as follows: Selectivity interaction (KinomeScan (DiscoverX)) EUB0000545a DYRK1B. The note with it: at 1 µM.
Experiment [24] deals with Rho-associated protein kinase 1 (Homo sapiens) (UniProt Q13464). Nature of the experiment: Selectivity interaction (KinomeScan (DiscoverX)) EUB0000545a ROCK1. The settings on record: at 1 µM.
For experiment [25], the target named is T4, Alpha-1D adrenergic receptor (Homo sapiens, UniProt P25100).
T4 sequence (P25100 whole entry): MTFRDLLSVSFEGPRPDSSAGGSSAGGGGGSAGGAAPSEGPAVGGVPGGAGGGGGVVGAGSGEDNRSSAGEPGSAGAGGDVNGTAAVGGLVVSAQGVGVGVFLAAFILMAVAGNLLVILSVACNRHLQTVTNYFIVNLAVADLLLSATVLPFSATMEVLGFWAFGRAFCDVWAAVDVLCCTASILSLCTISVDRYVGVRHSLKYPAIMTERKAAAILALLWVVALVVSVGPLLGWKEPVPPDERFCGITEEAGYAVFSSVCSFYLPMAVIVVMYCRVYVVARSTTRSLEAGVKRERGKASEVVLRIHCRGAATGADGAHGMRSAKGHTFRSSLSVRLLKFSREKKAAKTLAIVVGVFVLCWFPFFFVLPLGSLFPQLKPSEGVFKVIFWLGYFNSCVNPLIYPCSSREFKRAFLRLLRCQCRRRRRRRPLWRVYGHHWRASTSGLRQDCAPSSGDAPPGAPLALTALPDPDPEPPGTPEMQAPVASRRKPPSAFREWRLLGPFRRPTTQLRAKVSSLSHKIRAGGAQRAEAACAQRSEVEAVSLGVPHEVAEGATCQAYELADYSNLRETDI
Nature of the experiment: Selectivity interaction (GPCR panel (PDSP screen)) EUB0000545a ADRA1D.

Experiment [26] addresses Focal adhesion kinase 1 (Homo sapiens, UniProt Q05397). The experiment is described as follows: Selectivity interaction (KinomeScan (DiscoverX)) EUB0000545a PTK2. The settings on record: at 1 µM.

T1 sequence (P21918 whole entry): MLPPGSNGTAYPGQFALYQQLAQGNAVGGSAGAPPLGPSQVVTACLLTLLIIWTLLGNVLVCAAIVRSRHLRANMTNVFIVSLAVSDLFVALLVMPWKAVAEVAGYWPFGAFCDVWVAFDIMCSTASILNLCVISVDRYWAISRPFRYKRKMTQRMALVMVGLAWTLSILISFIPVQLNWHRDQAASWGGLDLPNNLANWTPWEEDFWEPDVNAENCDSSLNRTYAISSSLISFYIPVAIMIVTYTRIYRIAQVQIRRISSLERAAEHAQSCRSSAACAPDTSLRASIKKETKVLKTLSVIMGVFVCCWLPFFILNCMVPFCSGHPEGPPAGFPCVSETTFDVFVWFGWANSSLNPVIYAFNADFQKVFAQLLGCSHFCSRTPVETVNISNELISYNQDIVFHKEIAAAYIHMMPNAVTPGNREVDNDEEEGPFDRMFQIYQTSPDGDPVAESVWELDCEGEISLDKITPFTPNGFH
Cyclin-dependent kinase 3 (Homo sapiens), sequence (Q00526 whole entry, looked up): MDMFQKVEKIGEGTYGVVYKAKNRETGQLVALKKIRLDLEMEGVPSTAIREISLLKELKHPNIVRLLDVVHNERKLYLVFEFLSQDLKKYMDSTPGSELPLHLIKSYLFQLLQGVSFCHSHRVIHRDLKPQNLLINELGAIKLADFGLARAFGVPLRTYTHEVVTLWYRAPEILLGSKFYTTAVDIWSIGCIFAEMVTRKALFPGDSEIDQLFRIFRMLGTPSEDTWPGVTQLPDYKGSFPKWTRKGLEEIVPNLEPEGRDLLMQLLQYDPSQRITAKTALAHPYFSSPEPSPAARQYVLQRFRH
Interstitial collagenase, sequence (P03956 whole entry): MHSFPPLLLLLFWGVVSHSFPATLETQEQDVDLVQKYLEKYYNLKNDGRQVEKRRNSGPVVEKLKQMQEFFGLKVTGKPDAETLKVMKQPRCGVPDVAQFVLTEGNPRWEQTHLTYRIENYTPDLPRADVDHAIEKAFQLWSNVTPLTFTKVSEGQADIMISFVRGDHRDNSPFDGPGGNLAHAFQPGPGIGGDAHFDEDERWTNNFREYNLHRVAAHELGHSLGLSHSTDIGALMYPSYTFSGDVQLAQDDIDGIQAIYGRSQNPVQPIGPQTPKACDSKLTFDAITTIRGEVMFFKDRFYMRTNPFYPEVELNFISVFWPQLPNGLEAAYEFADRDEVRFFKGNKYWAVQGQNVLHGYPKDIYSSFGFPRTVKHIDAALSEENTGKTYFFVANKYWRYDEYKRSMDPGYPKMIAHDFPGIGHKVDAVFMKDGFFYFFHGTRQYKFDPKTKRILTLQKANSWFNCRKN
Aurora kinase A, sequence (O14965 whole entry): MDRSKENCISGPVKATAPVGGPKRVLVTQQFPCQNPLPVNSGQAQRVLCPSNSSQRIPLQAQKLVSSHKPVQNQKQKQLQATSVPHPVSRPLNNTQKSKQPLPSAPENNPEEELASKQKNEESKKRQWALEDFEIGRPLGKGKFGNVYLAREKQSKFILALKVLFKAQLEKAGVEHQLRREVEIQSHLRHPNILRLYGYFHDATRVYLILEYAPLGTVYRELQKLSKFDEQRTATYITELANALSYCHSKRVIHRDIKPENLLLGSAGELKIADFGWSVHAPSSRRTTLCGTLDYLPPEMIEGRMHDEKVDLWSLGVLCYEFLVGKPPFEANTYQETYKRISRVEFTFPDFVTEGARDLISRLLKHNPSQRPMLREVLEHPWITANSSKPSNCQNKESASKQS
Rho-associated protein kinase 1 (Homo sapiens), sequence (Q13464 2-1354 limits assumed): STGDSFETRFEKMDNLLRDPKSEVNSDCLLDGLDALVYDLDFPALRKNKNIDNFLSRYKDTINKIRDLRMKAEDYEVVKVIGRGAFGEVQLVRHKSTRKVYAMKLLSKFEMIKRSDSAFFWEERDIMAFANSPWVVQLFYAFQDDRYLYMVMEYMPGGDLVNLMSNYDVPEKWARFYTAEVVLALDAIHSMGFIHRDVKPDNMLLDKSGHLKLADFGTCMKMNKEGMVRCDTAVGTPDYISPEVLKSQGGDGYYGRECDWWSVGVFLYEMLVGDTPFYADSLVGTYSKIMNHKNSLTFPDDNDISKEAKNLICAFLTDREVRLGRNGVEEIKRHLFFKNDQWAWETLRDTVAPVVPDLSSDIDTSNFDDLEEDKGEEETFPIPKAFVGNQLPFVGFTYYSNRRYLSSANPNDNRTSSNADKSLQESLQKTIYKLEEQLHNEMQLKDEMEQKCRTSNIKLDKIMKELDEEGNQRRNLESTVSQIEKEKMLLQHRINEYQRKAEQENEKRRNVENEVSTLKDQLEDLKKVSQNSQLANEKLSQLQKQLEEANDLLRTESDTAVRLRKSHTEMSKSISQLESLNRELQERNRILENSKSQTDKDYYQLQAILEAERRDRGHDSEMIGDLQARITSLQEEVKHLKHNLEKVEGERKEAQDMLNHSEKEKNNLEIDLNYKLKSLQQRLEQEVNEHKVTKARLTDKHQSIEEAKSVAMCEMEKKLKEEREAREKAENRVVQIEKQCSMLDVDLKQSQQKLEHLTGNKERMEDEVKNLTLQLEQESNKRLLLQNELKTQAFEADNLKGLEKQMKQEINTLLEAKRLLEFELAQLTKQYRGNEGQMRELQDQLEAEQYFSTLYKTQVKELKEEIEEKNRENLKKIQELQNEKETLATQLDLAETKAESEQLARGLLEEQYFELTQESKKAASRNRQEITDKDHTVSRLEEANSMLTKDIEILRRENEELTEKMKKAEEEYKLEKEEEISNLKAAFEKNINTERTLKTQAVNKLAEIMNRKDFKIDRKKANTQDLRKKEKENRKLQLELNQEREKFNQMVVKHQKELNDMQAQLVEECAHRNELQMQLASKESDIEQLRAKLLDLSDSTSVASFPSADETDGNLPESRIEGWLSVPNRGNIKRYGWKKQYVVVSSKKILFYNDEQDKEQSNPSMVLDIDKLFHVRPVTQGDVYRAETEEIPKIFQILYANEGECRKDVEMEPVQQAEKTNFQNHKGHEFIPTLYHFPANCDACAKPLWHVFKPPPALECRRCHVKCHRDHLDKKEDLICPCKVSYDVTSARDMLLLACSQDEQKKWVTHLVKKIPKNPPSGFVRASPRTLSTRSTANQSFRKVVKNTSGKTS
Focal adhesion kinase 1, sequence (Q05397 2-1052 limits assumed): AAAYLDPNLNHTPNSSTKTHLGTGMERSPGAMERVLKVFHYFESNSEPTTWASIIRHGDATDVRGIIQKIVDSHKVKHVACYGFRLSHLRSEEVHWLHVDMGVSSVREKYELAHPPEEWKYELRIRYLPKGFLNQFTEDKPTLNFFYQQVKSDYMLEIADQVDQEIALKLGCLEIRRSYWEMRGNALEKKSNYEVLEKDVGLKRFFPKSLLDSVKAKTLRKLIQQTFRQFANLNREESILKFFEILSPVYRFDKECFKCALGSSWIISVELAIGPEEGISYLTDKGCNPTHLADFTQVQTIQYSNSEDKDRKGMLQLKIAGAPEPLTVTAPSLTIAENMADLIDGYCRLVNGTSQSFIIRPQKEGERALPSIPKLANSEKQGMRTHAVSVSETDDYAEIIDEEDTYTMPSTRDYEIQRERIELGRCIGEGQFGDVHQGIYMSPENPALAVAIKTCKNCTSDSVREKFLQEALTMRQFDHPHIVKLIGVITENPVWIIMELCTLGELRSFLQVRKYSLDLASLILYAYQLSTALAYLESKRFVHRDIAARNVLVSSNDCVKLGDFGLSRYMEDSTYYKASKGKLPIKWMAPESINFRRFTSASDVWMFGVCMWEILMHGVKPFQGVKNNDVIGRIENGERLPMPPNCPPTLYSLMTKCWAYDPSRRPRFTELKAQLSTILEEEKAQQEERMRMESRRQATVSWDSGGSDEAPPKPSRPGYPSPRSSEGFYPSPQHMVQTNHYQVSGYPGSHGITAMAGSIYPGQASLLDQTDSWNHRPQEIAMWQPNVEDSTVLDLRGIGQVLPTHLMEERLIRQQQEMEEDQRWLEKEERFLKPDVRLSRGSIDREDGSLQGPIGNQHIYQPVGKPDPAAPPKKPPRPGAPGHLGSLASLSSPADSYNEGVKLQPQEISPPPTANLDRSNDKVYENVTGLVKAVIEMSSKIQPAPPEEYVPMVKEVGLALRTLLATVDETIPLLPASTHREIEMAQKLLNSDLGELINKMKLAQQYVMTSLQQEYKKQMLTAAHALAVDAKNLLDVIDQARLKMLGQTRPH
Cyclin-dependent kinase 19 (Homo sapiens), sequence (Q9BWU1 whole entry): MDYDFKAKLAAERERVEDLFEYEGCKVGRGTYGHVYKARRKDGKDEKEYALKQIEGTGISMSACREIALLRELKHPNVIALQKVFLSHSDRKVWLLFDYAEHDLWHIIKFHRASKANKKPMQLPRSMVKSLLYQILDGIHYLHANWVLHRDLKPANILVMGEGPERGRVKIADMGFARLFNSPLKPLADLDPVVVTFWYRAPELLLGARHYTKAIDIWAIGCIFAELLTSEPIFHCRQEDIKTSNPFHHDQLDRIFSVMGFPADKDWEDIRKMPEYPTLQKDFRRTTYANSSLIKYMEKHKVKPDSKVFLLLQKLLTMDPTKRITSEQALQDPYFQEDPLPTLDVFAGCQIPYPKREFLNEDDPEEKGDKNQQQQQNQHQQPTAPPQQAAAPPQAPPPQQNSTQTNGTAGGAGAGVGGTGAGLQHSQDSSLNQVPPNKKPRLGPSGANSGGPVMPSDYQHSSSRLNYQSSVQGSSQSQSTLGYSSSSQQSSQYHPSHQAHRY
Prostaglandin E2 receptor EP4 subtype, sequence (P35408 whole entry, the tested form may be a part): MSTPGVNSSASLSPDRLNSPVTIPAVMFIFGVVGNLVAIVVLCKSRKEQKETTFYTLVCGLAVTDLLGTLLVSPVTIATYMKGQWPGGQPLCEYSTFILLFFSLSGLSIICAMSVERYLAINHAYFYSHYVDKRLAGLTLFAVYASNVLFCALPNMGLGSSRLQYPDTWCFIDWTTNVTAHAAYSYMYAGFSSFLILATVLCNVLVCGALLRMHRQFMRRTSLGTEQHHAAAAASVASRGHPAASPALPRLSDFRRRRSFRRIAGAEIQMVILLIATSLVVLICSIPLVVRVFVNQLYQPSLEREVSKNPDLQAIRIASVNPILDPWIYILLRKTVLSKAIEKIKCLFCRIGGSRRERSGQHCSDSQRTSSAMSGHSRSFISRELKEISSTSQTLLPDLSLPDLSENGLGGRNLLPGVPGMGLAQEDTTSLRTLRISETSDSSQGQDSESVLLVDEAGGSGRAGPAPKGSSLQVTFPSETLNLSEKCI

For the molecule `CCOC(=O)c1cc2cc(-c3cc(C(=O)NCc4ccc(C(=O)O)cc4)nn3C)ccc2[nH]1` [BI 4394], the Ki in [1] is more than 10 µM. Moreover, the % of control in [2] came out at 0%; in experiment [9] it was 43%; in [12] it was 0%. In addition, the IC50 in experiment [3] was more than 22 µM; in experiment [4] it was 1600 nM; in experiment [5], 1300 nM; in experiment [6], 1100 nM; in [7], more than 22 µM; in experiment [8], more than 22 µM. Moreover, the results for the IC50 in experiment [10], in experiment [11] and in experiment [13] were 1900 nM, more than 22 µM and more than 22 µM, respectively. This molecule also displayed a % of inhibition in experiment [14] of 60%.
Consider `Cn1nc(C(=O)NCc2ccc(C(=O)O)cc2)cc1-c1ccc2[nH]ccc2c1` [BI 4395], for which the % of control in experiment [15] is 31%; in experiment [16] it was 23%; in [18], 33%. Further, the Ki in experiment [17] is more than 10 µM.
Turning to `Cc1c(NC(=O)c2cc(C(N)=O)nc3cc(F)ccc23)c(C(F)(F)F)nn1Cc1ccc(C#N)cc1` [BAY-876], the % of control in experiment [19] turned out to be 0%; in experiment [21], 1.5%. The IC50 worked out at 1120 nM in experiment [20] and 1140 nM in [22].
With `CC(=O)N1CCC(c2ccc(C(=O)NC3=NCCN3)cc2C(F)(F)F)CC1` [BI 0054], the % of control was 37% in experiment [23], 0.5% in experiment [24] and 17% in [26]. In experiment [25], this molecule displayed a Ki of more than 10 µM.

Usually Ki stands for a measure of affinity in units of concentration, obtained from inhibition or displacement. A word on the IC50: it is the midpoint of a concentration-inhibition curve. A high value points to lower potency.
